Reference: the supplement of paper PMC11061612

Legend:
Experiment in all cases: combination Emax (second highest fraction inhibited in the dose matrix, 72 h); higher = more inhibition; extreme values may be limits of the assay
KALS-1 (Glioblastoma) = system: KALS-1 (Glioblastoma)
Outline: (§1)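 Cell lines in DMEM/F12 or RPMI with 10% FBS were plated in 1536-well plates, held 24 hours at 37°C, 5% CO2, then given two-drug dose matrices for 72 hours (DMSO typically 0.2%). Viability was read by CellTiter-Glo 2.0 luminescence and scaled as inhibition from 0 (vehicle wells) to 1 (blank wells). Combination Emax is the second-highest inhibition in the matrix; Bliss excess is observed combination effect minus expected EA + EB − EA·EB, EA and EB being single-agent effects.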

[1] = system: C-33-A (Cervical Carcinoma)
Outline: as §1

ES6 (Ewing's Sarcoma) = system: ES6 (Ewing's Sarcoma)
Outline: as §1

[2] = system: SNU-423 (Hepatocellular Carcinoma)
Outline: as §1

IST-MEL1 (Melanoma) = system: IST-MEL1 (Melanoma)
Outline: as §1

[3] = system: SKG-IIIa (Cervical Carcinoma)
Outline: as §1

[4] = system: BxPC-3 (Pancreatic Carcinoma)
Outline: as §1

[5] = system: LCLC-103H (Non-Small Cell Lung Carcinoma)
Outline: as §1

[6] = system: NAMALWA (Burkitt's Lymphoma)
Outline: as §1

[7] = system: IA-LM (Non-Small Cell Lung Carcinoma)
Outline: as §1

NCI-H226 (Mesothelioma) = system: NCI-H226 (Mesothelioma)
Outline: as §1

SK-N-SH (Neuroblastoma) = system: SK-N-SH (Neuroblastoma)
Outline: as §1

[8] = system: MONO-MAC-6 (Acute Myeloid Leukemia)
Outline: as §1

[9] = system: COR-L88 (Small Cell Lung Carcinoma)
Outline: as §1

GAK (Melanoma) = system: GAK (Melanoma)
Outline: as §1

[10] = system: SK-CO-1 (Colorectal Carcinoma)
Outline: as §1

[11] = system: RCC-JW (Kidney Carcinoma)
Outline: as §1

[12] = system: NCI-H3118 (Head and Neck Carcinoma)
Outline: as §1

[13] = system: HPAF-II (Pancreatic Carcinoma)
Outline: as §1

[14] = system: T84 (Colorectal Carcinoma)
Outline: as §1

SMILES	combination Emax (KALS-1 (Glioblastoma))	combination Emax [1]	combination Emax (ES6 (Ewing's Sarcoma))	combination Emax [2]	combination Emax (IST-MEL1 (Melanoma))	combination Emax [3]	combination Emax [4]	combination Emax [5]	combination Emax [6]	combination Emax [7]	combination Emax (NCI-H226 (Mesothelioma))	combination Emax (SK-N-SH (Neuroblastoma))	combination Emax [8]	combination Emax [9]	combination Emax (GAK (Melanoma))	combination Emax [10]	combination Emax [11]	combination Emax [12]	combination Emax [13]	combination Emax [14]
C[C@@H](Nc1cc(F)cc(F)c1)c1cc(C(=O)N(C)C)cc2c(=O)cc(N3CCOCC3)oc12 [AZD8186] + CC(=O)c1c(C)c2cnc(Nc3ccc(N4CCNCC4)cn3)nc2n(C2CCCC2)c1=O [Palbociclib] (first compound max 10 µM, 7x7, partner max 10 µM)	0.38	0.353	0.412	0.454	0.545	0.235	0.347	0.476	0.616	0.311	0.297	0.492	0.654	0.201	0.448	0.749	0.588	0.568	0.466	0.235
C[C@@H](Oc1cc(-c2cnn(C3CCNCC3)c2)cnc1N)c1c(Cl)ccc(F)c1Cl [Crizotinib] + CC1=C(C(=CC=C1)Cl)NC(=O)C2=CN=C(S2)NC3=CC(=NC(=N3)C)N4CCN(CC4)CCO [Dasatinib] (first compound max 10 µM, 7x7, partner max 2 µM)	0.925	0.582	0.751	0.934	0.76	0.734	0.938	0.722	0.934	0.601	0.558	0.859	0.947	0.435	0.694	0.954	0.851	0.881	0.431	0.58
C[C@@H](Oc1cc(-c2cnn(C3CCNCC3)c2)cnc1N)c1c(Cl)ccc(F)c1Cl [Crizotinib] + Cn1cnc2c(F)c(Nc3ccc(Br)cc3Cl)c(C(=O)NOCCO)cc21 [Selumetinib] (first compound max 10 µM, 7x7, partner max 10 µM)	0.538	0.421	0.59	0.823	0.454	0.254	0.439	0.412	0.937	0.245	0.393	0.854	0.991	0.409	0.851	0.989	0.665	0.627	0.687	0.576
CS(=O)(=O)CCNCc1ccc(-c2ccc3ncnc(Nc4ccc(OCc5cccc(F)c5)c(Cl)c4)c3c2)o1 [Lapatinib] + Cn1cnc2c(F)c(Nc3ccc(Br)cc3Cl)c(C(=O)NOCCO)cc21 [Selumetinib] (first compound max 10 µM, 7x7, partner max 10 µM)	0.575	0.55	0.553	0.508	0.543	0.393	0.909	0.309	0.419	0.318	0.228	0.398	0.437	0.215	0.722	0.886	0.988	0.653	0.877	0.763
CS(=O)(=O)CCNCc1ccc(-c2ccc3ncnc(Nc4ccc(OCc5cccc(F)c5)c(Cl)c4)c3c2)o1 [Lapatinib] + NC1(c2ccc(-c3nc4ccn5c(=O)[nH]nc5c4cc3-c3ccccc3)cc2)CCC1 [MK-2206] (first compound max 10 µM, 7x7, partner max 10 µM)	0.718	0.895	0.879	0.912	0.886	0.36	0.614	0.538	0.909	0.487	0.164	0.921	0.671	0.812	0.872	0.793	0.964	0.783	0.402	0.832
O=C(c1cc(Cc2n[nH]c(=O)c3ccccc23)ccc1F)N1CCN(C(=O)C2CC2)CC1 [Olaparib] + CC1(C)CCC(CN2CCN(c3ccc(C(=O)NS(=O)(=O)c4ccc(NCC5CCOCC5)c([N+](=O)[O-])c4)c(Oc4cnc5[nH]ccc5c4)c3)CC2)=C(c2ccc(Cl)cc2)C1 [Venetoclax] (first compound max 10 µM, 7x7, partner max 1 µM)	0.118	0.305	0.173	0.115	0.628	0.147	0.148	0.155	0.456	0.155	0.0963	0.545	0.249	0.373	0.0703	0.769	0.163	0.153	0.119	0.065
O=C(c1cc(Cc2n[nH]c(=O)c3ccccc23)ccc1F)N1CCN(C(=O)C2CC2)CC1 [Olaparib] + CN(CC[C@H](CSC1=CC=CC=C1)NC2=C(C=C(C=C2)S(=O)(=O)NC(=O)C3=CC=C(C=C3)N4CCC(CC4)[C@H](C5=CC=CC=C5C6=CC=C(C=C6)Cl)O)S(=O)(=O)C(F)(F)F)CCO [AZD4320] (first compound max 10 µM, 7x7, partner max 1 µM)	0.156	0.386	0.237	0.236	0.171	0.137	0.148	0.224	0.396	0.328	0.105	0.688	0.431	0.961	0.146	0.949	0.787	0.155	0.796	0.122
O=C(c1cc(Cc2n[nH]c(=O)c3ccccc23)ccc1F)N1CCN(C(=O)C2CC2)CC1 [Olaparib] + COc1nnc2ccc(N3CCC(c4ccc(OCCN5CCN(C)C(=O)[C@H]5C)cc4)CC3)nn12 [AZD5153] (first compound max 10 µM, 7x7, partner max 1 µM)	0.548	0.484	0.292	0.302	0.252	0.385	0.403	0.343	0.751	0.352	0.376	0.428	0.882	0.214	0.451	0.7	0.38	0.519	0.334	0.0881
O=C(c1cc(Cc2n[nH]c(=O)c3ccccc23)ccc1F)N1CCN(C(=O)C2CC2)CC1 [Olaparib] + Cc1c2c(nn1C)CSCc1cc(n(C)n1)CSc1cc(c3ccccc3c1)OCCCc1c(C(=O)O)n(C)c3c-2c(Cl)ccc13 [AZD5991] (first compound max 10 µM, 7x7, partner max 1 µM)	0.163	0.329	0.168	0.16	0.101	0.128	0.043	0.192	0.979	0.0022	0.107	0.333	0.993	0.227	0.0885	0.785	0.163	0.352	0.0669	0.111
N#Cc1cnc(Nc2cc(NC[C@H]3CNCCO3)c(C(F)(F)F)cn2)cn1 [SRA737] + C=CCn1c(=O)c2cnc(Nc3ccc(N4CCN(C)CC4)cc3)nc2n1-c1cccc(C(C)(C)O)n1 [AZD1775] (first compound max 10 µM, partner max 1 µM)	0.927	0.97	0.349	0.648	0.655	0.465	0.613	0.711	0.988	0.311	0.226	0.804	1	0.685	0.841	0.631	0.456	0.876	0.495	0.853
N#Cc1cnc(Nc2cc(NC[C@H]3CNCCO3)c(C(F)(F)F)cn2)cn1 [SRA737] + CCc1c2c(nc3ccc(O)cc13)-c1cc3c(c(=O)n1C2)COC(=O)[C@]3(O)CC [SN-38] (first compound max 10 µM, 7x7, partner max 0.3 µM)	0.928	0.943	0.59	0.648	0.828	0.592	0.671	0.817	0.994	0.675	0.248	0.892	1	0.645	0.585	0.893	0.574	0.763	0.547	0.815
N#Cc1cnc(Nc2cc(NC[C@H]3CNCCO3)c(C(F)(F)F)cn2)cn1 [SRA737] + Nc1ccn([C@@H]2O[C@H](CO)[C@@H](O)C2(F)F)c(=O)n1 [Gemcitabine] (first compound max 10 µM, 7x7, partner max 0.3 µM)	0.87	0.951	0.599	0.745	0.709	0.575	0.644	0.844	1	0.373	0.462	0.852	1	0.617	0.506	0.899	0.868	0.772	0.61	0.827
N#Cc1cnc(Nc2cc(NC[C@H]3CNCCO3)c(C(F)(F)F)cn2)cn1 [SRA737] + O=c1[nH]cc(F)c(=O)[nH]1 [5-Fluorouracil] (first compound max 10 µM, 7x7, partner max 20 µM)	0.792	0.478	0.161	0.477	0.528	0.34	0.555	0.559	0.967	0.0378	0.145	0.57	1	0.435	0.448	0.654	0.21	0.575	0.436	0.785
